Experimental findings from patent US11560400B2, “Salts of diphosphate phosphoramidate of nucleosides as anticancer compounds” (NuCana plc, priority 2017, dated 2023) are described below.

One assay concerns MOLT-4. Put plainly: CellTiterGlo cell viability assay, MOLT-4. It is filed as cell-based. To be noted: Homo sapiens, MOLT-4, 72 h; for inhibition at 198 µM: percentage inhibition at the highest concentration tested, read-out: Top Inh; for EC50: Table 4 classes, read-out: Ab EC50. The method, then: (§1) A subset of compounds of the invention were assayed for their cytotoxic activity in an array of different solid tumours and haematological malignancies using the following assay.
(§2) In vitro viability assay were performed to assess the effects of compounds on cell viability in selected cell lines over 72 h using the CellTiterGlo (CTG, Promega-G7573) assay. The tests were performed in duplicates with treatment of compounds at 9 points, 3.16 folds titration in 96 well plates over ˜72 h. The compound starting concentrations were 198 μM. Cell viability assay using CellTiterGlo in 96-well plate were performed. Compound treatment 72 h, standard growth conditions, duplicates. Compounds were dissolved to 40 mM with thawed […]. Compounds were serially diluted at 3.16 fold in thawed DMSO, and warmed to 37° C. before being dissolved in media (2 μL+200 μL). After compounds were dissolved in media, media containing compounds were warmed to 37° C. in incubator and then compounds in media were added to cell plates (50 μL+50 μL) in duplicates. The compounds' final concentrations were from 198 μM to 19.8 nM. All compound solubilities were checked and recorded again, then the plates were transferred to CO2 tissue culture incubator immediately and incubated for 3 days. DMSO final concentration is 0.5%. The parent nucleoside in each case was tested as a comparator, as was an exemplary ProTide. The drugs of the ProTide class that were tested were as follows:
(§3) The following cell lines were tested and are referred to in the Table 1 below:
(§4) In Tables 2, 3 and 4, ‘Ab EC50’ refers to the absolute EC50 and ‘Top inhibit’ refers to the percentage inhibition achieved at the highest concentration tested.

The next assay deals with CCRF-CEM. Put plainly: CellTiterGlo cell viability assay, CCRF-CEM. It counts as cell-based. To be noted: Homo sapiens, 72 h; for EC50: Table 4 classes, read-out: Ab EC50; for inhibition at 198 µM: percentage inhibition at the highest concentration tested, read-out: Top Inh. On the procedure:
as §1, §2, §3, §4
On the technique in general: Cellular ATP, detected with luciferase, serves as a proxy for viable cell number.

The next assay has as its system OVCAR 3. Put plainly: CellTiterGlo cell viability assay, OVCAR 3. To be noted: Homo sapiens; for inhibition at 198 µM: OVCAR-3, 72 h, percentage inhibition at the highest concentration tested, read-out: Top Inhibit; for EC50: OVCAR 3, 72 h, Table 4 classes, read-out: Ab EC50. It is filed as cell-based. The method, then:
as §1, §2, §3, §4

Another assay concerns MCF-7. Put plainly: CellTiterGlo cell viability assay, MCF-7. It is filed as cell-based. To be noted: Homo sapiens, MCF7, 72 h, MCF-7, 72 h; for inhibition at 198 µM: percentage inhibition at the highest concentration tested, read-out: Top Inhibit. The method, then:
as §1, §2, §3, §4

Another assay relates to HL-60. Put plainly: CellTiterGlo cell viability assay, HL-60. It is filed as cell-based. To be noted: Homo sapiens, HL-60, 72 h; for EC50: Table 4 classes, read-out: Ab EC50; for inhibition at 198 µM: percentage inhibition at the highest concentration tested, read-out: Top Inh. The method, then: as §1, §2, §3, §4
In the next assay the test system is KG-1. Put plainly: CellTiterGlo cell viability assay, KG-1. It is filed as cell-based. To be noted: Homo sapiens, KG-1, 72 h; for EC50: Table 4 classes, read-out: Ab EC50; for inhibition at 198 µM: percentage inhibition at the highest concentration tested, read-out: Top Inhibit. On the procedure:
as §1, §2, §3, §4

The next assay concerns HepG2. Put plainly: CellTiterGlo cell viability assay, HepG2. It is filed as cell-based. To be noted: Homo sapiens, HepG2, 72 h; for EC50: Table 4 classes, read-out: Ab EC50; for inhibition at 198 µM: percentage inhibition at the highest concentration tested, read-out: Top Inhibit. The method, then:
as §1, §2, §3, §4

In the next assay the test system is RL. Put plainly: CellTiterGlo cell viability assay, RL. To be noted: Homo sapiens, 72 h; for inhibition at 198 µM: percentage inhibition at the highest concentration tested, read-out: Top Inh. It is filed as cell-based. The method, then:
as §1, §2, §3, §4

In a further assay the test system is HT29. Put plainly: CellTiterGlo cell viability assay, HT29. It is filed as cell-based. To be noted: Homo sapiens, HT-29, 72 h, HT29, 72 h; for EC50: Table 4 classes, read-out: Ab EC50; for inhibition at 198 µM: percentage inhibition at the highest concentration tested, read-out: Top Inhibit. The method, then: as §1, §2, §3, §4
In the next assay the test system is K562. Put plainly: CellTiterGlo cell viability assay, K562. It is filed as cell-based. To be noted: Homo sapiens; for inhibition at 198 µM: K562, 72 h, percentage inhibition at the highest concentration tested, read-out: Top Inh; for EC50: K562, K 562, 72 h, Table 4 classes, read-out: Ab EC50. On the procedure: as §1, §2, §3, §4
The subject of the next assay is RPMI-8226. Put plainly: CellTiterGlo cell viability assay, RPMI-8226. To be noted: Homo sapiens, RPMI-8226, 72 h; for EC50: Table 4 classes, read-out: Ab EC50; for inhibition at 198 µM: percentage inhibition at the highest concentration tested, read-out: Top Inh. It is filed as cell-based, Human. On the procedure:
as §1, §2, §3, §4

The mark [1] stands for this setting: Table 4 classes, read-out: Ab EC50.

Structures can show the parent of a compound that is named as a salt. Where only a bound is given, the exact number is not on record here.

The term EC50 denotes the midpoint of the concentration-response curve. With `COC(=O)[C@H](CCSC)NP(=O)(Oc1ccccc1)OP(=O)(O)OC[C@H]1O[C@@H](n2cnc3c(N)nc(Cl)nc32)C(F)[C@H]1O` (stereo partly drawn) [Example 24, 2-Chloro-9-(2′-Deoxy-2′-fluoro-β-D-arabinofuranosyl)adenine-5′-O-[l-phenyl(methoxy-L-metioninyl)] Diphosphate Triethylammonium Salt], the inhibition at 198 µM in the assay with MOLT-4 was 88%; with CCRF-CEM, 99%; with OVCAR 3, 67%; with MCF-7, 49%; in the assay on HL-60, 95%; in the assay on KG-1 it was 91%. The inhibition at 198 µM in the assay with HepG2 was found to be 54%; in the assay on RL it was 39%; in the assay with HT29 it was 70%; in the assay on K562, 49%; in the assay with RPMI-8226, 86%. The EC50 is below 0.2 µM with MOLT-4; below 0.2 µM with CCRF-CEM; above 10 µM in the assay with OVCAR 3; below 0.2 µM in the assay on HL-60; below 0.2 µM in the assay on KG-1; 1 to 5 µM in the assay on HepG2. The EC50 was 0.2 to 1 µM in the assay with HT29, above 10 µM in the assay on K562 and above 10 µM in the assay on RPMI-8226.

As to `C[C@H](NP(=O)(Oc1cccc2ccccc12)OP(=O)(O)OC[C@H]1O[C@@H](n2cnc3c(N)nc(Cl)nc32)[C@H](F)C1O)C(=O)OCc1ccccc1` (stereo partly drawn) [Example 17, 2-Chloro-9-(2′-Deoxy-2′-fluoro-β-D-arabinofuranosyl)adenine-5′-O-[1-1-naphthyl(benzoxy-L-alaninyl)] Diphosphate Triethylammonium Salt], the inhibition at 198 µM turned out to be 88% with MOLT-4; 99% with CCRF-CEM; 47% with OVCAR 3; 46% with MCF-7; 96% in the assay with HL-60; 92% in the assay with KG-1. Further, the inhibition at 198 µM in the assay on HepG2 came to 52%; in the assay with RL it was 48%; in the assay with HT29, 69%; in the assay with K562 it was 37%; in the assay with RPMI-8226, 82%. Besides, the EC50 in the assay on MOLT-4 is below 0.2 µM; with CCRF-CEM it was below 0.2 µM; in the assay on OVCAR 3 it was above 10 µM; in the assay on HL-60 it was below 0.2 µM; in the assay on KG-1, below 0.2 µM; in the assay on HepG2 it was 0.2 to 1 µM. The EC50 is 0.2 to 1 µM in the assay with HT29, above 10 µM in the assay with K562 and above 10 µM in the assay with RPMI-8226.

Consider `CCOP(=O)(N[C@@H](C)C(=O)OCc1ccccc1)OP(=O)(O)OC[C@H]1O[C@@H](n2cnc3c(N)nc(Cl)nc32)[C@H](F)C1O` (stereo partly drawn) [Example 20, 2-Chloro-9-(2′-Deoxy-2′-fluoro-β-D-arabinofuranosyl)adenine-5′-O-[1-ethyl(benzoxy-L-alaninyl)] Diphosphate Triethylammonium Salt], for which the inhibition at 198 µM was determined as 89% in the assay on MOLT-4; 99% in the assay with CCRF-CEM; 49% with OVCAR 3; 48% with MCF-7; 96% in the assay on HL-60; 92% in the assay on KG-1. Moreover, the inhibition at 198 µM in the assay with HepG2 turned out to be 54%; in the assay with RL, 69%; in the assay on HT29, 69%; in the assay on K562, 35%; with RPMI-8226 it was 80%. In addition, the EC50 was below 0.2 µM in the assay on MOLT-4; below 0.2 µM in the assay on CCRF-CEM; above 10 µM in the assay on OVCAR 3; below 0.2 µM in the assay on HL-60; below 0.2 µM in the assay with KG-1; 0.2 to 1 µM with HepG2. In addition, the EC50 in the assay with RL (setting [1]) was 0.2 to 1 µM; in the assay with HT29, 0.2 to 1 µM; in the assay with K562 it was above 10 µM; with RPMI-8226, above 10 µM.

With `Nc1nc(Cl)nc2c1ncn2[C@@H]1O[C@H](COP(=O)(O)OP(=O)(Oc2ccccc2)N2CCCC2C(=O)OCc2ccccc2)[C@H](O)C1F` (stereo partly drawn) [Example 23, 2-Chloro-9-(2′-Deoxy-2′-fluoro-β-D-arabinofuranosyl)adenine-5′-O-[1-phenyl(benzoxy-L-prolinyl)] Diphosphate Triethylammonium Salt], the inhibition at 198 µM with MOLT-4 came out at 89%; in the assay on CCRF-CEM it was 99%; in the assay with OVCAR 3, 63%; in the assay on MCF-7, 48%; in the assay with HL-60, 96%; with KG-1, 93%. Moreover, the inhibition at 198 µM stood at 51% in the assay with HepG2; 39% in the assay with RL; 68% in the assay on HT29; 35% with K562; 85% in the assay on RPMI-8226. Also, the concentration for a half-maximal effect (EC50) was below 0.2 µM with MOLT-4; below 0.2 µM in the assay on CCRF-CEM; above 10 µM in the assay on OVCAR 3; below 0.2 µM in the assay with HL-60; below 0.2 µM in the assay with KG-1; 1 to 5 µM in the assay on HepG2. The EC50 in the assay on HT29 was 0.2 to 1 µM; with K562, above 10 µM; with RPMI-8226, above 10 µM.

As for `CC(C)(NP(=O)(Oc1cccc2ccccc12)OP(=O)(O)OC[C@H]1O[C@@H](n2cnc3c(N)nc(Cl)nc32)[C@H](F)C1O)C(=O)OCc1ccccc1` (stereo partly drawn) [Example 11, 2-Chloro-9-(2′-Deoxy-2′-fluoro-β-D-arabinofuranosyl)adenine-5′-O-[1-naphthyl(benzoxy-dimethylglycinyl)] Diphosphate Triethylammonium Salt], the inhibition at 198 µM in the assay on MOLT-4 came out at 91%; in the assay on CCRF-CEM, 99%; in the assay with OVCAR 3 it was 70%; in the assay on MCF-7, 57%; in the assay with HL-60, 96%; in the assay with KG-1, 92%. Further, the inhibition at 198 µM in the assay on HepG2 came out at 58%; in the assay on RL, 47%; with HT29, 69%; in the assay with K562, 50%; with RPMI-8226 it was 81%. In addition, the EC50 was below 0.2 µM in the assay on MOLT-4; below 0.2 µM with CCRF-CEM; above 10 µM in the assay on OVCAR 3; above 10 µM in the assay with MCF-7 (setting [1]); below 0.2 µM in the assay on HL-60; below 0.2 µM in the assay with KG-1. In addition, the EC50 in the assay on HepG2 is 1 to 5 µM; with HT29 it was 0.2 to 1 µM; in the assay on K562, above 10 µM; in the assay with RPMI-8226, above 10 µM.
